ChEMBL document CHEMBL5108044, “Discovery of a Novel Potent STAT3 Inhibitor HP590 with Dual p-Tyr705/Ser727 Inhibitory Activity for Gastric Cancer Treatment” (J Med Chem, 2022)
The source made the active and inactive calls. No cut-off for these calls is given here.

Assays:
MKN-45 [1] = experiment: Inhibition of mitochondrial respiration in STAT3 knockdown human MKN-45 cells assessed as oxygen consumption rate incubated for 80 mins […]; assay type: functional, cell-based
MKN-45 [2] = experiment: In vivo inhibition of STAT3 in human MKN-45 cells xenografted in BALB/c nude mouse assessed as reduction in c-myc gene expression at 25 to 50 mg/kg, po qd administered for 5 weeks by Western blot analysis; assay type: functional, organism-based; settings: dose 25-50 mg/kg
AGS [3] = experiment: Induction of apoptosis in human AGS cells assessed as viable cells at 5 nM incubated for 48 hrs by FITC-annexin V/propidium iodide staining based flow cytometry (reference value: 87.2%); assay type: functional; settings: read-out: Activity
MKN-45 [4] = experiment: In vivo inhibition of STAT3 phosphorylation at Tyr705 residue in human MKN-45 cells xenografted in BALB/c nude mouse at 25 to 50 mg/kg, po qd administered for 5 weeks by immunohistochemical analysis; assay type: functional, organism-based; settings: dose 25-50 mg/kg
[5] = AUC (0 to infinity) in ICR mouse plasma at 1 mg/kg, iv measured up to 24 hrs by LC-MS/MS analysis; assay type: ADME, organism-based; set-up: time < 24 hrs, dose 1 mg/kg, route iv
[6] = target: T1, Signal transducer and activator of transcription 3 (Homo sapiens, UniProt P40763); experiment: Inhibition of STAT3 phosphorylation at Tyr705 residue in human MGC-803 cells upto 40 nM by Western blotting analysis; assay type: cell-based; settings: time <= 24.0 hrs, TDE = time-dependent effect
MGC-803 = experiment: Inhibition of colony formation in human MGC-803 cells assessed as reduction in number of colonies incubated for 5 to 7 days by crystal violet staining based assay; assay type: functional, cell-based; settings: dose <= 20.0 nM, time 5-7 day, DDE = dose-dependent effect
MKN-45 [7] = experiment: Potency index, ratio of IC50 for BBI608 to IC50 for test compound for antiproliferative activity against human MKN-45 cells assessed as reduction in cell viability incubated for 72 hrs by MTS assay; assay type: functional
[8] = target: T1, Signal transducer and activator of transcription 3; experiment: Inhibition of human recombinant STAT3 (127 to 722 residues) transcriptional activity expressed in HEK293T cells in presence of IL-6 by Dual-luciferase reporter gene assay; assay type: cell-based
AGS [9] = experiment: Induction of apoptosis in human AGS cells assessed as necrotic cells 5 nM incubated for 48 hrs by FITC-annexin V/propidium iodide staining based flow cytometry (reference value: 2.70%); assay type: functional
[10] = target: T1, Signal transducer and activator of transcription 3; experiment: Inhibition of STAT3 phosphorylation at Ser727 residue in human MGC-803 cells incubated upto 24 hrs by Western blotting analysis; assay type: cell-based; settings: dose <= 40.0 nM, DDE = dose-dependent effect
[11] = Toxicity in […] mouse assessed as body weight loss at 25 to 50 mg/kg, po qd administered for 5 weeks; assay type: organism-based; settings: in vivo, 840 h, dose 25-50 mg/kg
[12] = target: T1, Signal transducer and activator of transcription 3; experiment: Inhibition of STAT3 in human AGS cells assessed as downregulation of cyclin D1 expression at 10 to 40 nM incubated for 24 hrs by RT-PCR analysis; assay type: cell-based; settings: dose 10-40 nM
AGS [13] = experiment: Induction of apoptosis in human AGS cells assessed as viable cells at 10 nM incubated for 48 hrs by FITC-annexin V/propidium iodide staining based flow cytometry (reference value: 87.2%); assay type: functional; settings: read-out: Activity
MKN-45 [14] = experiment: Induction of apoptosis in human MKN-45 cells assessed as early apoptic cells 10 nM incubated for 48 hrs by FITC-annexin V/propidium iodide staining based flow cytometry (reference value: 2.79%); assay type: functional
Cytochrome P450 1A2 = target: T2, Cytochrome P450 1A2 (Homo sapiens, UniProt P05177); experiment: Inhibition of CYP1A2 in human liver microsome; assay type: ADME, microsomes
T2 sequence (P05177 whole entry): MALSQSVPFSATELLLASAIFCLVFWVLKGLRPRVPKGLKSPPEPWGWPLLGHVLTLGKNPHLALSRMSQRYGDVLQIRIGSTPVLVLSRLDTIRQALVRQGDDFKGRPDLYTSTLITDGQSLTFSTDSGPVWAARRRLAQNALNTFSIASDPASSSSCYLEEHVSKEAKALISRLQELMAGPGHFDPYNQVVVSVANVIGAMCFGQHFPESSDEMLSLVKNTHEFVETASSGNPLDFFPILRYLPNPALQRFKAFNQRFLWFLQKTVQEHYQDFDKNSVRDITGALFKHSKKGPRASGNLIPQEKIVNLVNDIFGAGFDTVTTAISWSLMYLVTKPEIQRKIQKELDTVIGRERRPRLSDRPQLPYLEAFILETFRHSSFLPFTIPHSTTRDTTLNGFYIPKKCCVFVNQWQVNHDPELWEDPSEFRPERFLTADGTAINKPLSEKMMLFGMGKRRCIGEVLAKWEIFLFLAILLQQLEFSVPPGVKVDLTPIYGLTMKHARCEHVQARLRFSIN

MKN-45 [15] = experiment: Inhibition of colony formation in human MKN-45 cells assessed as reduction in number of colonies incubated for 5 to 7 days by crystal violet staining based assay; assay type: functional, cell-based; settings: dose <= 20.0 nM, time 5-7 day, DDE = dose-dependent effect
[16] = target: T1, Signal transducer and activator of transcription 3; experiment: Inhibition of STAT3 in human AGS cells assessed as downregulation of c-Myc expression incubated up to 24 hrs by western blot analysis; assay type: cell-based; settings: dose <= 40.0 nM, DDE = dose-dependent effect
AGS [17] = experiment: Antiproliferative activity against human AGS cells assessed as cell viability incubated for 72 hrs by MTS assay; assay type: functional, cell-based; settings: dose <= 100.0 nM, DDE = dose-dependent effect
[18] = target: T1, Signal transducer and activator of transcription 3; experiment: Inhibition of STAT3 phosphorylation at Tyr705 residue in human MKN-45 cells upto 40 nM by Western blotting analysis; assay type: cell-based; settings: time <= 24.0 hrs, TDE = time-dependent effect
MKN-45 [19] = experiment: Induction of apoptosis in human MKN-45 cells assessed as early apoptic cells 20 nM incubated for 48 hrs by FITC-annexin V/propidium iodide staining based flow cytometry (reference value: 2.79%); assay type: functional
MKN-45 [20] = experiment: Inhibition of STAT3 mediated oxidative phosphorylation at Ser727 residue in human MKN-45 cells assessed as reduction in oxidative phosphorylation at less than 40 nM incubated for 1 hr by Seahorse XF24 extracellular flux analyzer; assay type: functional, cell-based
[21] = target: T1, Signal transducer and activator of transcription 3; experiment: Inhibition of STAT3 in human MKN-45 cells assessed as downregulation of cyclin D1 expression up to 40 nM by western blot analysis; assay type: cell-based; settings: time <= 24.0 hrs, TDE = time-dependent effect
[22] = Toxicity in BALB/c nude mouse xenografted with human MKN-45 cells assessed as kidney damage at 25 to 50 mg/kg, po qd administered for 5 weeks by H and E staining based analysis; assay type: organism-based; settings: in vivo, 840 h, dose 25-50 mg/kg
[23] = target: T1, Signal transducer and activator of transcription 3; experiment: Inhibition of STAT3 in human AGS cells assessed as downregulation of Bcl2 expression at 10 to 40 nM incubated for 24 hrs by RT-PCR analysis; assay type: cell-based; settings: dose 10-40 nM
MKN-45 [24] = experiment: Induction of apoptosis in human MKN-45 cells assessed as early apoptic cells 5 nM incubated for 48 hrs by FITC-annexin V/propidium iodide staining based flow cytometry (reference value: 2.79%); assay type: functional
[25] = target: T1, Signal transducer and activator of transcription 3; experiment: Inhibition of STAT3 in human MGC-803 cells assessed as downregulation of c-Myc expression up to 40 nM by western blot analysis; assay type: cell-based; settings: time <= 24.0 hrs, DDE = dose-dependent effect
[26] = Oral bioavailability in ICR mouse plasma at 10 mg/kg measured up to 24 hrs by LC-MS/MS analysis; assay type: ADME, organism-based
[27] = Apparent volume of distribution in ICR mouse plasma at 1 mg/kg, iv measured up to 24 hrs by LC-MS/MS analysis; assay type: ADME, organism-based; settings: read-out: Vz

T1 sequence (P40763 whole entry): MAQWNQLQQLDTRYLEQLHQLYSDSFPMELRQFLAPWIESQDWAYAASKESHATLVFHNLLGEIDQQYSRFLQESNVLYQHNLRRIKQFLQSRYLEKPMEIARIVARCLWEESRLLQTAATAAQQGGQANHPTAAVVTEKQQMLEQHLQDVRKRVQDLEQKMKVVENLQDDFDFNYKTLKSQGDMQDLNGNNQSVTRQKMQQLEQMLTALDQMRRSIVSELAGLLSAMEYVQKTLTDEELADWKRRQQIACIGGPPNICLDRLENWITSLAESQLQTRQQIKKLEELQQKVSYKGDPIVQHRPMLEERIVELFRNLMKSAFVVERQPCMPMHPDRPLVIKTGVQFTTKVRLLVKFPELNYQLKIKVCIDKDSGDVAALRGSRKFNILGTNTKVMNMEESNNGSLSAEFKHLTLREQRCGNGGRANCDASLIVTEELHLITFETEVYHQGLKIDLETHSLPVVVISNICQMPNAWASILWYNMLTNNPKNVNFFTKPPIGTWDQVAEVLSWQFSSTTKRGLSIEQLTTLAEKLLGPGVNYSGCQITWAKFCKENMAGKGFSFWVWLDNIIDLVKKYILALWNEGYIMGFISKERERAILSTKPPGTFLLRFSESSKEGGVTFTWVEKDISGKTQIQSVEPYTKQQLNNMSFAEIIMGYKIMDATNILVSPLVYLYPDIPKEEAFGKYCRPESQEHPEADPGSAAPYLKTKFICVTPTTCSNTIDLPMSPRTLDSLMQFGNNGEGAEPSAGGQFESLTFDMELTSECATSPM

## O=C(c1ccc(-c2noc(-c3ccc(C(F)(F)F)cc3)n2)cc1)N1CCN(Cc2ccc(OCC(F)(F)F)cc2)CC1
MKN-45 [1]
  inhibition: Active
MKN-45 [2]
  inhibition: Active
AGS [3]
  viability at 0.005 µM: 85.7%
MKN-45 [4]
  inhibition: Active
[5]
  AUC(0-inf): 2270 ng·h/mL
[6]
  inhibition: Tde
MGC-803
  inhibition: Dde
MKN-45 [7]
  Ratio IC50: 30
[8]
  IC50: 27.8 nM
AGS [9]
  Activity: 3.96%
[10]
  inhibition: Dde
[11]
  Activity: Non-Toxic
[12]
  inhibition: Active
AGS [13]
  viability at 0.01 µM: 82.3%
MKN-45 [14]
  Activity: 5.7%
Cytochrome P450 1A2
  IC50: > 50000 nM
MKN-45 [15]
  inhibition: Dde
[16]
  inhibition: Dde
AGS [17]
  Activity: Dde
[18]
  inhibition: Tde
MKN-45 [19]
  Activity: 5.06%
MKN-45 [20]
  inhibition: Active
[21]
  inhibition: Tde
[22]
  Activity: Non-Toxic
[23]
  inhibition: Active
MKN-45 [24]
  Activity: 4.73%
[25]
  inhibition: Dde
[26]
  bioavailability: 54.4%
[27]
  Vd: 5.76 L/kg
